Results published in ChEMBL document CHEMBL1147927, “Piperazinyl CCR1 antagonists--optimization of human liver microsome stability” (Bioorg Med Chem Lett, 2007).

Columns and labels:
[1] = molecular target: T1, C-C chemokine receptor type 1 (Homo sapiens, UniProt P32246); assay: Binding Affinity at CCL3
T1 sequence (P32246 whole entry): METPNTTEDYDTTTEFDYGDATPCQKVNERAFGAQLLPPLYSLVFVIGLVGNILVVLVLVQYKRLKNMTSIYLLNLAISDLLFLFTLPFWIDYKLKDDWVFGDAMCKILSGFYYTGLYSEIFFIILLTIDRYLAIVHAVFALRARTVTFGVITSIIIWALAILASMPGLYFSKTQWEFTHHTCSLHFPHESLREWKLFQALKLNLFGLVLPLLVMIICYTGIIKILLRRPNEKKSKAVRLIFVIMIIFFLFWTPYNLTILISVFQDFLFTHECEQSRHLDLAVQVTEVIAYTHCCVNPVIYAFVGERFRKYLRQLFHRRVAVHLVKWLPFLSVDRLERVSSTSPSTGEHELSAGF

[2] = Metabolic stability in monkey liver microsomes; format: ADME, Macaca fascicularis, Microsome; details: cynomolgus monkey
[3] = Metabolic stability in rat liver microsomes; format: ADME, Microsome
[4] = Metabolic stability in dog liver microsomes; format: ADME, Canis lupus familiaris, Microsome
[5] = Metabolic stability in human liver microsomes; format: ADME, Microsome
[6] = Activity at CCL3 by chemotaxis assay; format: functional
[7] = Half life in monkey; format: ADME, organism-based, Macaca fascicularis; details: cynomolgus monkey, in vivo
[8] = Plasma clearance in iv dosed dog; format: ADME, organism-based, Canis lupus familiaris
[9] = Half life in rat; format: ADME, organism-based; details: in vivo
[10] = Plasma clearance in monkey; format: ADME, organism-based, Macaca fascicularis; details: cynomolgus monkey
[11] = Plasma clearance in iv dosed rat; format: ADME, organism-based
[12] = Half life in dog; format: ADME, organism-based, Canis lupus familiaris; details: in vivo
[13] = Volume of distribution at steady state in monkey; format: ADME, organism-based, Macaca fascicularis; details: cynomolgus monkey, in vivo; read-out: Vdss
[14] = Volume of distribution at steady state in dog; format: ADME, organism-based, Canis lupus familiaris; details: in vivo, read-out: Vdss
[15] = Volume of distribution at steady state in rat; format: ADME, organism-based; details: in vivo, read-out: Vdss
[16] = Bioavailability in rat; format: ADME, organism-based; details: in vivo
[17] = Bioavailability in dog; format: ADME, organism-based, Canis lupus familiaris; details: in vivo
[18] = Bioavailability in monkey; format: ADME, organism-based, Macaca fascicularis; details: cynomolgus monkey, in vivo

| Compound | IC50 [1] | CLhep predicted [2] | CLhep predicted [3] | CLhep predicted [4] | CLhep predicted [5] | IC50 [6] | half-life [7] | clearance [8] | half-life [9] | clearance [10] | clearance [11] | half-life [12] | Vd [13] | Vd [14] | Vd [15] | bioavailability [16] | bioavailability [17] | bioavailability [18] |
| --- | --- | --- | --- | --- | --- | --- | --- | --- | --- | --- | --- | --- | --- | --- | --- | --- | --- | --- |
| C[C@@H]1CN(Cc2ccc(F)cc2)CCN1C(=O)COc1ccc(Cl)cc1 | 860 nM | 40 mL/min/kg | 63 mL/min/kg | 27 mL/min/kg | 14 mL/min/kg | 86 nM |  |  |  |  |  |  |  |  |  |  |  |  |
| C[C@@H]1CN(Cc2ccc(F)cc2)[C@@H](C)CN1C(=O)COc1ccc(Cl)cc1C(=O)O | 59 nM | 31 mL/min/kg | 20 mL/min/kg | 11 mL/min/kg | 4.7 mL/min/kg | 68 nM | 5.9 h | 0.2 mL/min/kg | 14 h | 3.4 mL/min/kg | 2.4 mL/min/kg | 11 h | 0.9 L/kg | 0.2 L/kg | 2.4 L/kg |  |  |  |
| C[C@@H]1CN(Cc2ccc(F)cc2)CCN1C(=O)COc1ccc(Cl)cc1NC(N)=O [BX 471 FREE BASE] |  | 42 mL/min/kg | 62 mL/min/kg | 28 mL/min/kg | 16 mL/min/kg | 4 nM | 0.8 h | 1.7 mL/min/kg | 0.7 h | 8.9 mL/min/kg | 33 mL/min/kg | 4 h | 0.6 L/kg | 0.6 L/kg | 1.7 L/kg | 2% |  |  |
| C[C@@H]1CN(Cc2ccc(F)cc2)[C@@H](C)CN1C(=O)COc1ccc(Cl)cc1C(=O)NCCN | 30 nM | 36 mL/min/kg | 22 mL/min/kg | 25 mL/min/kg | 5.9 mL/min/kg | 3 nM |  |  | 1 h |  | 184 mL/min/kg |  |  |  | 7.7 L/kg |  |  |  |
| C[C@@H]1CN(Cc2ccc(F)cc2)[C@@H](C)CN1C(=O)COc1ccc(Cl)cc1CS(=O)(=O)O | 23 nM | 18 mL/min/kg | 21 mL/min/kg | 11 mL/min/kg | 4.7 mL/min/kg | 3 nM | 1.1 h | 0.2 mL/min/kg | 4.6 h | 51 mL/min/kg | 17 mL/min/kg | 21 h | 2.1 L/kg | 0.4 L/kg | 2.6 L/kg | 40% | 100% | 19% |
| C[C@@H]1CN(Cc2ccc(F)cc2)[C@@H](C)CN1C(=O)COc1ccc(Cl)cc1CC(=O)O | 38 nM | 18 mL/min/kg | 25 mL/min/kg | 11 mL/min/kg | 4.7 mL/min/kg | 2 nM |  | 0.4 mL/min/kg | 3.7 h |  | 5.2 mL/min/kg | 11 h |  | 0.3 L/kg | 3.2 L/kg |  |  |  |
| C[C@@H]1CN(Cc2ccc(F)cc2)[C@@H](C)CN1C(=O)COc1ccc(Cl)cc1NC(=O)NCCN | 8 nM | 18 mL/min/kg | 24 mL/min/kg | 11 mL/min/kg | 4.9 mL/min/kg | 1 nM |  |  |  |  |  |  |  |  |  |  |  |  |
| C[C@@H]1CN(Cc2ccc(F)cc2)[C@@H](C)CN1C(=O)COc1ccc(Cl)cc1C(=O)CCC(=O)O | 13 nM | 18 mL/min/kg | 31 mL/min/kg | 11 mL/min/kg | 4.7 mL/min/kg | < 0.5 nM |  | 9.7 mL/min/kg | 2.3 h |  | 42 mL/min/kg | 5.8 h |  | 4.2 L/kg | 4 L/kg | 9% | 100% |  |
